Measured values reported in patent US20260009008A1, “SYNTHETIC GENOME EDITING SYSTEM” (Pencil Biosciences Limited, priority 2021, published 2026).
Entries after “also recorded” stand apart in the source; their conditions may differ. Values belong to the substance of their own block, whether it stands above or below them.

Tests used:
PDS2 dsDNA bait (ACGGGT) = assay: ELISA / bio-panning of M13 phage display peptides on biotinylated dsDNA bait PDS2; format: binding; conditions: peptide displayed in the phage library
Text: (§1) As noted above, a commercially available M13 phage display library was employed (New England Biolabs, catalogue #E8111L) which contains around 1×10^912mer peptides fused to the N-terminus of the phage minor coat protein III. Two different 6 nt dsDNA baits were employed with a biotin tag immobilized on a streptavidin-coated 96 well plate as specified in Table 1 below:
(§2) ELISA assays were used to assess binding of peptides of the phage display library to the PDS1 and PDS2 dsDNA baits using an anti-M13 phage antibody labelled with horseradish peroxidase (HRP). After three rounds of bio-panning and sequence analysis of the bound peptides in the library, two 12 mer peptide sequences were selected, chemically synthesised, and modified as set out in Table 2 below.
(§3) • 1. Blocking step of the streptavidin coated 96 well plate (Fisher Scientific, UK) with the Blocking Buffer (0.1 M NaHCO3 (pH 8.6), 5 mg/ml BSA, filter sterilised and stored at 4° C.). • 2. 6 rounds of wash with 1× TBST after discarding the blocking solution. • 3. Precomplexing step (this step can be done at the same time as the blocking step, mentioned above), where the amplified phage library was incubated with each of the dsDNA baits in separate reactions. Each bait includes annealed double stranded DNA oligos (dsDNA), containing one of the PDS sites. […]

[1] = Observation of peptide aggregation / precipitation; format: physicochemical
[2] = test system: molecular beacon DNA oligonucleotide (SEQ. ID. No. 60); assay: Molecular beacon assay for DNA binding and cleavage; format: biochemical; conditions: for emission signal of the fluorophore after a 15-minute incubation: peptide:molecular beacon 500:1, beacon 400 nM, 5 mM MnCl2; for signal / disassembly of the molecular beacon with different metal ions: zinc, manganese, calcium and magnesium chloride
Text: A molecular beacon assay was firstly used to screen each of the peptides for DNA binding and cleavage. For the purpose of these studies, the following DNA oligonucleotide containing 33 nucleotides was employed
where the first six nucleotides at each terminus complement one another forming a 6 bp double stranded DNA stem.
The hairpin structure formed contains a fluorescein molecule as a 5′ modification (6-FAM) and a fluorescent quencher (BHQ1) as a 3′ modification. In the hairpin conformation the fluorescent signal of the molecular beacon is reduced. If a peptide binds or causes cleavage, the hairpin structure will disassemble releasing the fluorophore from the quencher.
The reaction conditions were chosen to reflect conditions that might be expected to strengthen the probability of DNA cleavage by each peptide. As noted above, the peptide designs were inspired by the catalytic active sites of known nucleases. Often the divalent metal of choice for such sites is Mg^2 +. […] In contrast Mn^2 + ions require less coordination sites to facilitate catalysis.
Each reaction was carried out in a reaction buffer of 25 mM Tris-HCl (pH 7.5), 130 mM NaCl, 27μM KCl and 5 mM MnCl2. The molecular beacon was provided at a concentration of 400 nM.
The emission signal of the fluorophore after a 15-minute incubation was measured for each peptide mixed with the molecular beacon at a 500:1 concentration ratio.

plasmid DNA (pBR322) = assay: Gel plasmid cleavage assay; format: biochemical; conditions: for percentage of nicked plasmid with increasing peptide concentration: after 12 hours
Text: For this reason a further gel plasmid cleavage assay was employed to look for cleavage. Such a gel cleavage assay can differentiate between plasmid that is intact (no cleavage), nicked (ssDNA cleavage) and linearised (dsDNA cleavage) as the three plasmid species will migrate differently on an agarose gel. Intact plasmids have a supercoiled structure and therefore can migrate easily through an agarose gel whereas a ssDNA cleavage on the plasmid will relax this supercoiled structure. This produces a relaxed circle/nicked structure that migrates more slowly through the pores. The dsDNA cleavage of a plasmid produces a linearised plasmid. The linear structure migrates faster than a relaxed circular structure although not as fast as the supercoiled structure.
To optimize the assay, plasmid DNA (pBR322) was mixed with increasing concentrations of the peptide bL or bN, in the presence of Zn^2 + ions. […] The percentage of nicked species increases with greater peptide concentration for both bL and bN. […] An increasing proportion of the plasmid DNA is also observed in the wells of the gel. This DNA can be binding to the peptide causing a complex that is unable to migrate into the gel.

PDS1 dsDNA bait (GAGGTC) = assay: ELISA / bio-panning of M13 phage display peptides on biotinylated dsDNA bait PDS1; format: binding; conditions: peptide displayed in the phage library
Text: as §1, §2, §3

[3] = test system: nanoluciferase expression cassette with PDS variants in the target region; assay: Nanoluciferase detection assay for binding ability of the DBD to variant PDSs (ApGet-i); format: cell-based; conditions: EPI300 cells, ApGet-i induced with ATC, nanoluciferase induced with IPTG
Text: As noted above the DBD of sequence SLETWLKHREKDGGS (SEQ. ID. No. 4) was selected on the basis of binding affinity for the dsDNA sequence represented by the 5′ to 3′ sequence 5′GAGGTC3′ (the initially chosen predetermined sequence (PDS) for use in targeting). A further study was undertaken to determine the importance of various nucleotides in this PDS for binding to the same DBD using a nanoluciferase detection assay (Promega). This was on the basis of the prior observation as noted above that expression of ApGet-i in bacteria can suppress transcription of sequences containing target sites for the NAC plus the PDS used for DBD selection.
A nanoluciferase expression cassette was cloned in a second plasmid vector (the Detector plasmid) with the PDS as originally used for DBD selection and variants of that PDS in the target region as shown in FIG. 22.
Bacterial cells were transformed with the Editor plasmid in which ApGet-i expression was under the control of a TetR promoter. The NAC was also expressed by the same plasmid under the control of a constitutive J23119 promoter. The Detector and Editor plasmids were provided with different resistance genes and compatible origins of replication. […] The signal of the nanoluciferase was monitored on the microplate reader and normalized to take account of the degree of bacterial growth in the culture. […]

[4] = test system: extended dsDNA containing the cognate PDS (PDS1); assay: T7E1 cleavage assay for peptide binding and unwinding of dsDNA target; format: biochemical; conditions: chemically synthesized peptides, PDS1 as cognate PDS
Text: FIG. 4: Cleavage assay results using T7E1 enzyme for binding of the chemically synthesized peptides 1, 2, 3 and 4 (Table 2 in Example 1) to the two 6 nt sequences as above designated PDS1 and PDS2 in a dsDNA target and unwinding of the dsDNA target.
It was reasoned that the phage clones with the selected DNA binding peptides will alter a DNA duplex in a region presenting the cognate PDS, which may result in recognition by DNA nucleases, such as T7E1, commonly used to detect insertions or deletions (indels), which result from the activity of genome editing enzymes, such as Cas9, Cas12a etc. Results of such cleavage assays for destabilized DNA duplex using the extended dsDNA baits as set out in Table 3 below and T7E1 and Surveyor enzymes support this hypothesis (see FIGS. 3a-c), i.e. that binding of the clones presenting the selected fused peptides to dsDNA destabilizes the structure of the DNA duplex in a manner facilitating accessibility for RNA hybridization.
The modified peptides as set out in Table 2 were used to test the sequences for use as DNA-binding domains without M13 phage connection. The modifications included amidation and acetylation at the […] to reflect natural peptide modifications to improve peptide stability and prevent degradation. In the case of Peptides 1 and 3, an additional C-terminal linker (GGS) was provided as noted above. […]

[5] = test system: PDS1 in an extended dsDNA target; assay: FRET experiment for binding/unwinding of dsDNA and RNA hybridization; format: biochemical; conditions: FAM-tagged targeting RNA, target DNA tagged with Cy5 or Texas Red
Experimental: FIG. 5: Schematic diagram illustrating a FRET experiment to assess specific binding and unwinding of a dsDNA target by peptide binding to a PDS with RNA hybridization. Results are also shown for binding of Peptide 1 (SEQ. ID. No. 37 as shown in Table 2) to PDS1 having the 5′ to 3′ sequence GAGGTC. The FRET signal was determined upon incubation of the PDS1 containing dsDNA targets with 5′ FAM-RNA with (2, 4) or without peptide (1, 3).
A FRET experiment was carried out to assess the binding and unwinding activity of Peptide 1 with ability to facilitate RNA hybridization when presented with PDS1 in an extended dsDNA target as shown schematically in FIG. 5. It was hypothesized that, upon binding, Peptide 1 will cause some transient unwinding of the dsDNA which will facilitate binding of a targeting RNA. The fluorescent donor, 6-carboxyfluorescein (FAM), was used to tag an appropriate targeting RNA with a 15 bp complementary sequence. Target DNA was tagged with the fluorescent acceptor Cy5 at a 3′ end or Texas Red at a 5′-end.

Substance: IEIDIHI [ibD]
aggregation / precipitation of peptide [1]: no observable aggregates even at the highest tested concentration

Substance: SLETWLKHREKD [Peptide 2]
binding ability for the PDS1 dsDNA bait (PDS1 dsDNA bait (GAGGTC)): high binding ability

Substance: SLETWLKHREKDGGS (DBD) [DBD of SEQ. ID. No. 4]
inhibition of luciferase expression with different PDSs ([3]; listed as DBD): effective in inhibiting expression of the luciferase | inhibition of luciferase expression with different PDSs ([3]; listed as DBD of SEQ. ID no. 4): shown to be effective

Substance: SLETWLKHREKDGGS [Peptide 1]
binding and non-duplex structure formation (T7E1 cleavage) [4]: best candidate to be a DNA-binding domain | RNA-DNA hybridisation reflected by FRET signal [5]: shown to be facilitated; also recorded: increase of FRET signal

Further lines, with some results ahead:

binding to the PDS2 dsDNA bait (PDS2 dsDNA bait (ACGGGT)): binding to the PDS2 dsDNA bait
Substance: AGDWESWTNGSW [Peptide 4]

signal with increasing peptide concentration, Zn2+ ions ([2]; Zn2+ ions, peptide 0-800 μM): still increase up to 800μM | signal without any metal ions ([2]; no metal): high signal | signal for the disassembly of the molecular beacon with increasing peptide concentration ([2]; peptide 0-800 μM, Mn2+ or Zn2+): general increase | emission signal of the fluorophore after a 15-minute incubation [2]: relatively high emission signal
Substance: IHIDISI [bN]
signal with Mn2+ ions compared with Mg2+ ions ([2]; peptide concentration 400 μM, beacon 400 nM): greater than the bN peptide with Mg^2 + ions | signal / disassembly of the molecular beacon with different metal ions [2]: high increase in the signal regardless of the metal; also recorded: greater with Mn^2 + ions | cleavage of plasmid (plasmid DNA (pBR322)): some cleavage | percentage of nicked plasmid with increasing peptide concentration (plasmid DNA (pBR322); Zn2+ ions): increase in the percentage of nicked plasmid

emission signal of the fluorophore after a 15-minute incubation [2]: relatively high emission signal
Substance: LDLDLKLHL [bL]
signal / disassembly of the molecular beacon with different metal ions [2]: more extensive in the presence of zinc chloride ions | cleavage of plasmid (plasmid DNA (pBR322)): some cleavage | amount of nicked plasmid at higher peptide concentrations (greater than 600 μM) (plasmid DNA (pBR322); Zn2+ ions, 12 hours): continues to increase | percentage of nicked plasmid with increasing peptide concentration (plasmid DNA (pBR322); Zn2+ ions): increase in the percentage of nicked plasmid
